From US20260226076A1, “FUSED MULTICYCLIC COMPOUNDS AND THEIR USE AS PARP1 INHIBITORS” (LAEKNA THERAPEUTICS SHANGHAI CO., LTD., priority 2022, published 2026)
Where two headings read alike, the source gives them in different places.

Assays:
[1] = Tumor/plasma ratio study in MDA-MB-436 tumor-bearing mouse; format: in vivo; settings: female NOD-SCID mice with MDA-MB-436 tumors, dosed 28 days; for concentration at 24 h: LC-MS/MS; for Kp at 24 h: tumor/plasma, 24 hours after the last dose
Description: 1×10^7 MDA-MB-436 cells were implanted subcutaneously onto the flank of female NOD-SCID mice (aged 6-8 weeks weighing approximately 18-22 g). When tumors reached approximately 150-180 mm3, the mice were randomly assigned to treatment groups. The mice were continuously dosed with the Compounds for 28 days. On day 29, blood (50 μL) and tumor tissue samples were collected at 24 hours after the last dose. The collected blood samples were then centrifuged at 4600 rpm for 5 minutes at 4° C. to obtain plasma. To determine compound levels in plasma samples, each plasma sample was prepared using an appropriate dilution factor and compared against an 11-point standard calibration curve (1-5,000 ng/mL) prepared in DMSO and spiked into blank plasma. Acetonitrile (200 μL) was added with internal standard into 20 μL plasma samples, followed by centrifugation at 5,500 rpm for 10 minutes. Supernatant (150 μL) was then diluted in water (150 μL) and analyzed via LC-MS/MS. Tumor tissue samples were weighed, and then homogenized with 80% methanol at a ratio of 1:5 or 1:10 (tumor weight in grams to methanol volume in milliliters). Acetonitrile (300 μL) was added with internal standard into 30 μL tumor homogenates sample. The samples were vortexed for 30 s and then centrifuged at 5,500 rpm for 10 min at 4° C. The supernatant (150 μL) was transferred to 96-well plate and diluted with water (150 μL) and analyzed via LC-MS/MS. If a sample concentration in initial assay was not covered in the range of a given standard curve, proper dilution and concentration procedures were used in repeated testing.

[2] = target: PARP1 (Homo sapiens, UniProt P09874); experiment: PARP1-DNA enzymatic trapping assay; format: biochemical; settings: 10 nM PARP1, 5 nM DNA probe, 2 mM NAD+, fluorescence polarization read at 30 minutes
Description: Enzymatic trapping assay is to measure the dissociation process of PARP1 from fluorescein-labeled DNA during the enzymatic activity. Assay was conducted at a total 10 μL of reaction volume, including 10 nM PARP1 and 5 nM DNA probe in the binding buffer (50 mM Tris-HCl pH 8.0, 50 mM NaCl, 1 mM MgCl2, 0.1 mM EDTA, and 0.01% IGEPAL), and was commenced by adding a final concentration of 2 mM NAD+ substrate.
PARP1 Poly-ADP ribosylation (PARylation) inhibitory assay was conducted with compounds dissolved in DMSO at a starting concentration of 5 μM. Dissolved compounds were added to 384-well microplate and premixed with PARPI enzyme and DNA probe for 20 minutes incubation. Enzymatic reactions were started by adding NAD+ to mixture, and each well was read at 30 minutes by microplate reader (VICTOR Nivo®, PerkinElmer) to detect the fluorescence polarization signal at 480 nm excitation/530 nm dual emission.
All measured IC50 values were calculated using four parameters dose-response inhibition model in GraphPad Prism 8.0.2 (La Jolla, California, USA, www.graphpad.com).

[3] = test system: MDA-MB-436 cells; experiment: Cell proliferation assay (MDA-MB-436); format: cell-based; settings: Homo sapiens, MDA-MB-436, 168 h, at least 7 days, Cell-Titer Glo, read-out: MDA-MB-436 anti-proliferation assay
Description: (§1) For PARPi sensitivity, exponentially growing MDA-MB-436 and DLD1 BRCA2^−/− cells were seed in 96 or 384-well plates at very low density with the goal of not splitting for at least 7 days (typically 0.3k-1.2k cells/well). Cells were plated on […] and treated with DMSO or increasing concentrations of PARP1 inhibitors on Day 0. At the end of the experiment, cell viability was estimated using Cell-Titer Glo (Promega).

[4] = target: PARP2 (Homo sapiens, UniProt Q9UGN5); experiment: PARP2-FL displacement assay; format: binding; settings: 20 nM PARP2, 3 nM PARPi-FL, 4 hours incubation, fluorescence polarization
Description: A potent PARP inhibitor (PARPi-FL, Cat No. 6461, Tocris Bioscience) conjugated to BDY FL fluorophore was adopted to characterize the activity of PARP2 by measuring the displacement of binding of PARPi-FL to PARP2. Compounds to be tested were prepared at a concentration of 1-10 mM, and made a 3-fold serial dilution by 100% DMSO in a polypropylene plate (Bio-One small volume microplate, black, Cat No. 784076, Greiner). 100 nL of test compounds were dispensed into a 384-well polypropylene microplate and added 10 μL of reaction solution including premixed 20 nM PARP2 and 3 nM PARPi-FL. After 4 hours of incubation at room temperature, the fluorescence polarization signal at 480/30 nm excitation and 530/30 nm dual emission was measured by VICTOR Nivo® multimode plate reader (PerkinElmer). All of the measured IC50 values were calculated using four parameters dose-response inhibition model in GraphPad Prism 8.0.2 (La Jolla, California, USA, www.graphpad.com).

[5] = test system: DLD1 BRCA2−/− cells; experiment: Cell proliferation assay (DLD1 BRCA2−/−); format: cell-based; settings: Homo sapiens, DLD-1, 168 h, at least 7 days, Cell-Titer Glo, read-out: DLD1 BRCA2−/− anti-proliferation assay
Description: as §1

[6] = tumor tissue 24 hours after the last dose, read-out: Tumor
[7] = plasma, sample 24 hours after the last dose, read-out: Plasma

Sequence of PARP1 (P09874 whole entry): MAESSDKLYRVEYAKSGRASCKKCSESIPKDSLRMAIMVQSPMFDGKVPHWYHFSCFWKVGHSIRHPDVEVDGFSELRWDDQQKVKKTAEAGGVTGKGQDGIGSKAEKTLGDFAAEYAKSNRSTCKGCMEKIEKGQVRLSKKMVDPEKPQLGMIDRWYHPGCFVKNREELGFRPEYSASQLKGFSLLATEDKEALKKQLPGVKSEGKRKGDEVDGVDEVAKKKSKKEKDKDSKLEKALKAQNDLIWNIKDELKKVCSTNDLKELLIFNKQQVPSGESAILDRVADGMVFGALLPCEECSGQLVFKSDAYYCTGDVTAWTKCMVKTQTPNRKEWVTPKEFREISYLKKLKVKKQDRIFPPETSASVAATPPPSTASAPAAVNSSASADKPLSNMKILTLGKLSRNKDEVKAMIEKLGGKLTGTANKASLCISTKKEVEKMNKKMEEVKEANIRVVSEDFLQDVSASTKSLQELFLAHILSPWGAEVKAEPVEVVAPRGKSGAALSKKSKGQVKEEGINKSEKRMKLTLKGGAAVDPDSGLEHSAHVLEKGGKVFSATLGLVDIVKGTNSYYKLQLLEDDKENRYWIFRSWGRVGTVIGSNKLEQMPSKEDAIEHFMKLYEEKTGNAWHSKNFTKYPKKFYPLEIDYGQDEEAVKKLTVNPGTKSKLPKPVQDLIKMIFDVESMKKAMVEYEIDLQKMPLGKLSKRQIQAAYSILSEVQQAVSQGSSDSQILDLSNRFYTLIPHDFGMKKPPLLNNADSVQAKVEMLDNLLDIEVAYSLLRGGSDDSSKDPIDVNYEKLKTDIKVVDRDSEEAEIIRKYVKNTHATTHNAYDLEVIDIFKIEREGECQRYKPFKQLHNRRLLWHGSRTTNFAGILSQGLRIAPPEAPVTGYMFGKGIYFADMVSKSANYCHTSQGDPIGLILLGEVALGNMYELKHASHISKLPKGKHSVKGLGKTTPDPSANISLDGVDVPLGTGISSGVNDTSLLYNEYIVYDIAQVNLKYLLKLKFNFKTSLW
Sequence of PARP2 (Q9UGN5 whole entry): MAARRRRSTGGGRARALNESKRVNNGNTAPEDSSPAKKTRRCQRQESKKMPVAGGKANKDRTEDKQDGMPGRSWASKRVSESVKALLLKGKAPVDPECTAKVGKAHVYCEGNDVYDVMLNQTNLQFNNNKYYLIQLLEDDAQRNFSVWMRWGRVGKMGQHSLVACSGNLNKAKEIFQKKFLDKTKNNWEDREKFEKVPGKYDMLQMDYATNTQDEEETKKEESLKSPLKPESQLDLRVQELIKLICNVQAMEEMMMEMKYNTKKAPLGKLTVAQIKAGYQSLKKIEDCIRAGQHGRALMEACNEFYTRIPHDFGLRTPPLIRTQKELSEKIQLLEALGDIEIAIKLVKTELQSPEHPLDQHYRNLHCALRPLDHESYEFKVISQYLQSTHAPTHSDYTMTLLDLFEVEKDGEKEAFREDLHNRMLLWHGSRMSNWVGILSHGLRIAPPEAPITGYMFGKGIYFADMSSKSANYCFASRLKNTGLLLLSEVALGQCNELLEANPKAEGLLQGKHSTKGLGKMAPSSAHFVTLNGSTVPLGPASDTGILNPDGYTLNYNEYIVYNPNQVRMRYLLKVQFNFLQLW

| concentration at 24 h [1, 6] [ng/g] | concentration at 24 h [1, 7] [ng/mL] | Kp at 24 h [1] | IC50 [2] [nM] | IC50 [3] [nM] | IC50 [4] [nM] | IC50 [5] [nM] | Compound |
| --- | --- | --- | --- | --- | --- | --- | --- |
| 249 | 584 | 0.4 |  |  |  |  | CCc1cc2ncc(CN3CCN(c4ccc(C(=O)NC)nc4)CC3)cc2[nH]c1=O [AZD5305, reference compound] |
| 121 | 4.3 | 28 | 7.41 | 0.44 | 3310 | 1.44 | O=C(NC1COC1)c1ccc(N2C[C@H]3CN(Cc4cnc5c6c(c(=O)[nH]c5c4)CCC6)C[C@@H]3C2)c(F)n1 [Compound 52] |
| 244 | 22 | 11 | 5.73 | 0.66 | 1200 | 0.62 | O=C(NC1COC1)c1ccc(N2C[C@H]3CN(Cc4ccc5c6c(c(=O)[nH]c5c4)CCC6)C[C@@H]3C2)c(F)n1 [Compound 87] |
|  |  |  | 7.93 | 0.9 | 925 | 0.58 | CNC(=O)c1ccc(N2C[C@@H]3CN(Cc4cnc5c(c4)[nH]c(=O)c4cccn45)C[C@H]3C2)cn1 (racemic) [Compound 4] |
|  |  |  | 6.25 | 0.37 | 1270 | 0.33 | CCc1cc2ncc(CN3C[C@@H]4CN(c5ccc(C(=O)NC)nc5)C[C@H]4C3)cc2[nH]c1=O [Compound 15] |
|  |  |  | 7.73 | 0.41 | 1630 | 2.7 | CNC(=O)c1ccc(N2C[C@H]3CN(Cc4cc5[nH]c(=O)c6c(c5cn4)CCOC6)C[C@@H]3C2)c(F)n1 [Compound 77] |
|  |  |  | 5.05 | 0.84 | 3880 | 4.75 | CNC(=O)c1ccc(N2C[C@H]3CN(Cc4cc5[nH]c(=O)c6c(c5cn4)COCC6)C[C@@H]3C2)c(F)n1 [Compound 80] |
|  |  |  | 9.52 | 0.35 | 832 | 2.11 | O=C(NC1CC1)c1ccc(N2C[C@@H]3CN(Cc4cnc5c6c(c(=O)[nH]c5c4)COCC6)C[C@H]3C2)c(F)n1 (stereo in doubt) [Compound 72] |
|  |  |  | 8.15 | 1.05 | 811 | 1.1 | O=C(N[C@H]1CCOC1)c1ccc(N2C[C@H]3CN(Cc4ccc5c6c(c(=O)[nH]c5c4)COCC6)C[C@@H]3C2)c(F)n1 [Compound 85] |
|  |  |  | 8.17 | 1.04 | 2470 | 1.6 | CNC(=O)c1ccc(N2C[C@H]3CN(Cc4ccc5c6c(c(=O)[nH]c5c4)COC6)C[C@@H]3C2)c(F)n1 [Compound 60] |
|  |  |  | 11.7 | 2.25 | 2370 | 1.37 | O=C(N[C@@H]1CCOC1)c1ccc(N2C[C@H]3CN(Cc4ccc5c6c(c(=O)[nH]c5c4)COCC6)C[C@@H]3C2)c(F)n1 [Compound 86] |
|  |  |  | 13.1 | 1.38 | 185 | 0.55 | CNC(=O)c1ccc(N2C[C@H]3CN(Cc4cnc5c6c(c(=O)[nH]c5c4)CCCC6)C[C@@H]3C2)c(F)n1 [Compound 82] |
|  |  |  | 4.2 | 0.39 | 614 | 0.7 | CO[C@H]1C[C@@H](NC(=O)c2ccc(N3C[C@H]4CN(Cc5ccc6c7c(c(=O)[nH]c6c5)COCC7)C[C@@H]4C3)c(F)n2)C1 [Compound 70] |
| 206 | 3.2 | 64 | 8.29 | 0.27 | 1040 | 1.09 | CO[C@H]1C[C@@H](NC(=O)c2ccc(N3C[C@H]4CN(Cc5cnc6c7c(c(=O)[nH]c6c5)COCC7)C[C@@H]4C3)c(F)n2)C1 [Compound 73] |
